Assay [1] concerns A2780/cp70. Put plainly: Modified MTT assay, A2780/cp70 (cisplatin resistant, MMR deficient). The conditions noted are these: 24 hour drug exposure; for IC50: MTT; for A2780/cp70 RF (Resistance Factor): fold difference in resistance from parental A2780. Format: cell-based, human. On the procedure: (§1) Relative drug sensitivities (Resistance Factor) and IC50 values were determined by a modified MTT assay (see, e.g., Mosmann, 1983; Plumb et al., 1989), as described below: • (1) Trypsinise a sub-confluent monolayer culture and collect cells in growth medium containing serum. Centrifuge the suspension (200 g, 5 minutes) to pellet cells, re-suspend in growth medium, and count cells. Dilute cells to a density of 5×10^3 cells/mL allowing 60 mL of cell suspension for 3 microtitre plates. Transfer cell suspension to a 10 cm petri dish, and with a multichannel pipette add 200 μL to each well of the central 10 columns of a flat bottomed 96-well plate (80 wells per plate) starting with column 2 and ending with column 11. Add 200 μL of growth medium to the 8 wells in columns 1 and 12. Put the plates in a plastic box and incubate in a humidified atmosphere at 37° C. for 2-3 days so that cells are in the exponential phase of growth for drug addition. • (2) Prepare a serial 5-fold dilution of the cytotoxic drug in growth medium to give 8 concentrations. Pipette 6 mL of growth medium in to each of 7 universal containers (30 mL). Prepare 10 mL of the highest concentration of the drug and transfer 1.5 mL of this solution to the first universal container. Mix and then transfer 1.5 mL to the next universal container. Continue until the seventh universal container is reached. The concentrations should be chosen so that the highest concentration kills most of the cells and the lowest kills none of the cells. Normally, three plates are used for each drug to give triplicate determinations within one experiment. • (3) The medium is removed from all the wells in columns 2 to 11. This can be achieved with a hypodermic needle attached to a suction line. Cells in the 8 wells in columns 2 and 11 are fed with 200 μL of fresh growth medium. The drug solutions are transferred to 10 cm petri dishes and 200 μL added to all 8 wells of a column. For ease of analysis arrange the drug solutions in order so that the highest is in column 3 down to the lowest in column 10. Plates are returned to the plastic box and incubated for 24 hours. • (4) At the end of the drug exposure period, the medium is removed from all wells containing cells and the cells are fed with 200 μL of fresh medium. • (5) The plates are fed daily for two more days. • (6) The plates are fed with 200 μL of fresh medium and 50 μL of the MTT solution (5 mg/mL in PBS) is added to all wells in columns 1 to 11. Plates are wrapped in aluminium foil and incubated for 4 hours in a humidified atmosphere at 37° C. • (7) The medium and MTT are then removed from the wells and the purple MTT-formazan crystals dissolved by addition of 200 μL of DMSO to all wells in columns 1 to 11. Glycine buffer is added (25 μL per well) to all wells containing DMSO. • (8) Absorbance is recorded at 570 nm with the wells in column 1, which contained medium and MTT but no cells used as a blank. • (9) A graph is plotted of absorbance (y-axis) against drug concentration (x-axis). The mean absorbance reading from the wells in columns 2 and 11 is used as the control absorbance and the IC50 concentration is determined as the drug concentration required to reduce the absorbance to half that of the control. IC10 or IC90 values can be determined in the same manner.
A2780/cp70 and A2780/mcp1 have lost expression of MLH1, have lost MMR activity, and have microsatellite instability compared to A2780. The CpG island at the MLH1 gene is methylated in A2780/cp70 and A2780/mcp1, but not A2780.
IC50 values (μM) for A2780, A2780/cp70, and A2780/mcp1 and Resistance Factors (RF) (the fold difference in resistance from parental A2780) were determined based on the MTT assay described above for several compounds of the present invention (including, e.g., MMR201).
On the technique in general: Tetrazolium assays rely on reduction of a dye to a coloured formazan, in cell work by metabolically active cells.

Assay [2] concerns A1 (MLH1+ve, MMR proficient). As to the kind of experiment: Modified MTT assay, A1 line (A2780/cp70 + chromosome 3, MLH1 +ve). Format: cell-based, human. As for the experimental part:
as §1
(§2) A1, E1, and A2 are derived by transfer of human chromosome 3 into A2780/cp70. MLH1 is located on chromosome 3.
(§3) IC50 values (μM) for A1 (MLH1+ve, MMR proficient) or E1 (MLH1+ve, MMR proficient) and A2 (MLH1−ve, MMR deficient) lines and Resistance Factors (RF) (the fold difference in resistance between the A2 line, MMR deficient, and the A1 line, MMR proficient) were determined based on the MTT assay described above for several compounds of the present invention (including, e.g., MMR201). Compounds showing increased activity against the MLH1 deficient A2 line compared to the MLH1 proficient A1 or E1 line have RF values less than 1.

For assay [3], the system named is A2 (MLH1−ve, MMR deficient). Put plainly: Modified MTT assay, A2 line (A2780/cp70 + chromosome 3, MLH1 -ve). In kind it is cell-based, human. The conditions noted are these: for IC50: A2 line; for RF (Resistance Factor): fold difference in resistance between A2 (MMR deficient) and A1 (MMR proficient). As for the experimental part: as §1, §2, §3
The test system of assay [4] is HT29. Put plainly: Modified MTT assay, colon panel HT29. Format: cell-based. As for the experimental part:
(§4) Relative drug sensitivities (Resistance Factor) and IC50 values were determined by a modified MTT assay (see, e.g., Mosmann, 1983; Plumb et al., 1989), as described below: • (1) Trypsinise a sub-confluent monolayer culture and collect cells in growth medium containing serum. Centrifuge the suspension (200 g, 5 minutes) to pellet cells, re-suspend in growth medium, and count cells. Dilute cells to a density of 5×10^3 cells/mL allowing 60 mL of cell suspension for 3 microtitre plates. Transfer cell suspension to a 10 cm petri dish, and with a multichannel pipette add 200 μL to each well of the central 10 columns of a flat bottomed 96-well plate (80 wells per plate) starting with column 2 and ending with column 11. Add 200 μL of growth medium to the 8 wells in columns 1 and 12. […] Glycine buffer is added (25 μL per well) to all wells containing DMSO. • (8) Absorbance is recorded at 570 nm with the wells in column 1, which contained medium and MTT but no cells used as a blank. • (9) A graph is plotted of absorbance (y-axis) against drug concentration (x-axis). The mean absorbance reading from the wells in columns 2 and 11 is used as the control absorbance and the IC50 concentration is determined as the drug concentration required to reduce the absorbance to half that of the control. IC10 or IC90 values can be determined in the same manner. […]

Assay [5] concerns T84. As to the kind of experiment: Modified MTT assay, colon panel T84. Format: cell-based. On the procedure: as §4
Assay [6] deals with HCT116 (MLH1). As to the kind of experiment: Modified MTT assay, colon panel HCT116. In kind it is cell-based, human. On the procedure:
as §4

Assay [7] has as its system SW48 (MLH1). Put plainly: Modified MTT assay, colon panel SW48. Format: cell-based. On the procedure: as §4
In assay [8] the test system is OVCAR3. Put plainly: Cancer cell line panel, OVCAR3 (ovary). Format: cell-based. On the procedure:
as §4

Assay [9] has as its system OVCAR4. As to the kind of experiment: Cancer cell line panel, OVCAR4 (ovary). In kind it is cell-based. On the procedure: as §4
The test system of assay [10] is MDAMB231. As to the kind of experiment: Cancer cell line panel, MDAMB231 (breast). Format: cell-based. On the procedure:
as §4

Assay [11] concerns LDAN. Put plainly: Cancer cell line panel, LDAN (NSCLC). Format: cell-based. As for the experimental part:
as §4

Assay [12] has as its system A549. As to the kind of experiment: Cancer cell line panel, A549 (NSCLC). In kind it is cell-based. As for the experimental part: as §4
Assay [13] has as its system CALU. Put plainly: Cancer cell line panel, CALU (NSCLC). In kind it is cell-based. As for the experimental part:
as §4

Assay [14] concerns HS294. Put plainly: Cancer cell line panel, HS294 (melanoma). In kind it is cell-based. As for the experimental part:
as §4

The subject of assay [15] is DU145. Put plainly: Cancer cell line panel, DU145 (prostate). In kind it is cell-based. On the procedure: as §4
Setting [16] is: read-out: Cisplatin IC50, MMR deficient, p53 wt.

Molecules are shown by their SMILES. Several values for one entry are separate records, joined by “and”; a condition that tells them apart may be missing. Equal values may be shown once. Read-outs that look alike come from different tables or passages of the source.

Turning to `CC[n+]1c(/C=C2\Sc3oc4ccccc4c3N2C)ccc2cc(C)ccc21.[I-]` [MMR201], the IC50 in [1] (Homo sapiens, A2780/CP70) turned out to be 17 ± 1 nM; in assay [2] (Homo sapiens, A2780/CP70, read-out: A1 or E1 MLH1 +ve MMR proficient IC50) it was 121 ± 18 nM; in assay [3] (Homo sapiens, A2780/CP70) it was 23 ± 1 nM; in [4] (Homo sapiens, HT-29, MMR proficient, p53 mut, read-out: MMR201 IC50), 118 ± 9.1 nM; in [5] (Homo sapiens, MMR proficient, p53 ?, read-out: MMR201 IC50) it was 1470 ± 175 nM; in [6] (Homo sapiens, HCT-116, MMR deficient, p53 wt, read-out: MMR201 IC50), 37.9 ± 3.1 nM. For the same compound, the IC50 in assay [7] (Homo sapiens, MMR deficient, p53 wt, read-out: MMR201 IC50) came out at 76.9 ± 7.3 nM; in assay [8] (Homo sapiens, OVCAR-3, read-out: MMR201) it was 253 ± 22 nM; in [9] (Homo sapiens, OVCAR-4, read-out: MMR201) it was 733 ± 41.2 nM; in assay [10] (Homo sapiens, MDA-MB-231, read-out: MMR201), 235 ± 22.5 nM; in assay [11] (read-out: MMR201), 114.4 ± 0.07 nM; in assay [12] (Homo sapiens, read-out: MMR201) it was 119 ± 10.6 nM. The IC50 was 380 ± 7.5 nM in [13] (read-out: MMR201); 105 ± 5.1 nM in [14] (read-out: MMR201); 328 ± 7.8 nM in assay [15] (Homo sapiens, DU-145, read-out: MMR201). The “A2780/cp70 RF (Resistance Factor)” value in assay [1] is reported as 0.29. For the same compound, in assay [3], the “RF (Resistance Factor)” value came out at 0.19.

Take `N.N.[Cl][Pt][Cl]` [Cisplatin, reference compound]: the IC50 in [1] was 1740 nM and 1680 nM; in assay [2] (read-out: A1 or E1 MLH1 +ve MMR proficient IC50), 715 ± 69 nM; in assay [3] it was 1900 ± 87 nM; in assay [4] (read-out: Cisplatin IC50, MMR proficient, p53 mut) it was 5670 ± 640 nM; in [5] (read-out: Cisplatin IC50, MMR proficient, p53 ?), 4230 ± 860 nM; in assay [6] (setting [16]), 2130 ± 30 nM. The IC50 in [7] (setting [16]) was found to be 1820 ± 70 nM; in [8] (read-out: Cisplatin), 239 ± 20 nM; in [9] (read-out: Cisplatin), 1640 ± 150 nM; in [10] (read-out: Cisplatin), 11200 ± 700 nM; in [11] (read-out: Cisplatin), 1230 ± 70 nM; in assay [12] (read-out: Cisplatin) it was 1130 ± 40 nM. Besides, the IC50 in [13] (read-out: Cisplatin) was found to be 7250 ± 580 nM; in assay [14] (read-out: Cisplatin), 1490 ± 80 nM; in [15] (read-out: Cisplatin) it was 1680 ± 40 nM. Moreover, in assay [1], the “A2780/cp70 RF (Resistance Factor)” value is 8.1 and 6.9. For the same compound, in [3], the “RF (Resistance Factor)” value was determined as 2.7.
